Measured values as given in PubChem BioAssay (NCI).
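1) Cells in 96-well plates. 2) Compound, 48 h, 5 concentrations. 3) Linear interpolation between surrounding doses. 4) Unreached endpoint = highest concentration. Definition used: TGI = concentration required for complete inhibition of growth.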

Experiments:
Assay in all cases: growth of human tumour cells (NCI), 48 h
RPMI-8226 leukemia = test system: RPMI-8226 leukemia
CCRF-CEM leukemia = test system: CCRF-CEM leukemia
HL-60(TB) leukemia = test system: HL-60(TB) leukemia
HOP-62 NSCLC = test system: HOP-62 NSCLC
SK-OV-3 ovarian = test system: SK-OV-3 ovarian
HT29 colon = test system: HT29 colon
KM12 colon = test system: KM12 colon
XF 498 CNS = test system: XF 498 CNS
U251 CNS = test system: U251 CNS
SK-MEL-28 melanoma = test system: SK-MEL-28 melanoma
HCC-2998 colon = test system: HCC-2998 colon
SK-MEL-5 melanoma = test system: SK-MEL-5 melanoma
UO-31 renal = test system: UO-31 renal
SF-539 CNS = test system: SF-539 CNS
KM20L2 colon = test system: KM20L2 colon
M19-MEL melanoma = test system: M19-MEL melanoma
786-0 renal = test system: 786-0 renal
NCI-H522 lung = test system: NCI-H522 lung
OVCAR-8 ovarian = test system: OVCAR-8 ovarian
K-562 leukemia = test system: K-562 leukemia
UACC-257 melanoma = test system: UACC-257 melanoma
HCT-116 colon = test system: HCT-116 colon
UACC-62 melanoma = test system: UACC-62 melanoma
IGROV1 ovarian = test system: IGROV1 ovarian
ACHN renal = test system: ACHN renal
SR leukemia = test system: SR leukemia
EKVX NSCLC = test system: EKVX NSCLC
OVCAR-3 ovarian = test system: OVCAR-3 ovarian
COLO 205 colon = test system: COLO 205 colon
SNB-19 CNS = test system: SNB-19 CNS
HCT-15 colon = test system: HCT-15 colon
NCI-H460 lung = test system: NCI-H460 lung
DMS 114 small cell lung = test system: DMS 114 small cell lung
LXFL 529 NSCLC = test system: LXFL 529 NSCLC
TK-10 renal = test system: TK-10 renal
NCI-H226 lung = test system: NCI-H226 lung
MOLT-4 leukemia = test system: MOLT-4 leukemia
SF-268 CNS = test system: SF-268 CNS
SN12C renal = test system: SN12C renal
A549 NSCLC = test system: A549 NSCLC
LOX IMVI melanoma = test system: LOX IMVI melanoma
MALME-3M melanoma = test system: MALME-3M melanoma
NCI-H23 lung = test system: NCI-H23 lung
M14 melanoma = test system: M14 melanoma
DMS 273 small cell lung = test system: DMS 273 small cell lung
SF-295 CNS = test system: SF-295 CNS
SW-620 colon = test system: SW-620 colon

Measured: TGI

CCCCc1c2c(nc3c1CCC/C3=C\c1ccccc1)/C(=C/c1ccccc1)CCC2
> 100 µM: RPMI-8226 leukemia | CCRF-CEM leukemia | HL-60(TB) leukemia | HOP-62 NSCLC | SK-OV-3 ovarian | HT29 colon | KM12 colon | XF 498 CNS | U251 CNS | SK-MEL-28 melanoma | HCC-2998 colon | SK-MEL-5 melanoma | UO-31 renal | SF-539 CNS | KM20L2 colon | M19-MEL melanoma | 786-0 renal | NCI-H522 lung | OVCAR-8 ovarian | K-562 leukemia | UACC-257 melanoma | HCT-116 colon | UACC-62 melanoma | IGROV1 ovarian | ACHN renal | SR leukemia | EKVX NSCLC | OVCAR-3 ovarian | COLO 205 colon | SNB-19 CNS | HCT-15 colon | NCI-H460 lung | DMS 114 small cell lung | LXFL 529 NSCLC | TK-10 renal | NCI-H226 lung | MOLT-4 leukemia | SF-268 CNS | SN12C renal | A549 NSCLC | LOX IMVI melanoma | MALME-3M melanoma | NCI-H23 lung | M14 melanoma | DMS 273 small cell lung | SF-295 CNS | SW-620 colon
